In article PMC9794698, “Structure optimization of new tumor-selective Passerini α-acyloxy carboxamides as Caspase-3/7 activators” (Scientific Reports, 2022):
“And” between values parts separate entries of the source, which are not always exact repeats. Equal values may be shown once. Read-outs that look alike come from different tables or passages of the source.

Key:
[1] = tested on: Caco-2 cells; experiment: MTT cytotoxicity assay, colorectal cancer cells; assay type: cell-based, human; settings: for IC50: Homo sapiens; for Caco-2 SI: ratio of IC50 against normal cells (Wi-38) to IC50 against Caco-2
Description: (§1) Wi-38, Caco-2 and HepG-2 cells were cultured in DMEM medium-contained 10% FBS, seeded as 5 × 10^3 cells per well in 96-well cell culture plate and incubated at 37 °C in 5% CO2 incubator. After 24 h, serial concentrations of the test compounds were incubated with cells for 72 h. Cell viability was assayed via MTT protocol[27] (Supplementary data). IC50 values of the synthesized compounds were measured via the Graphpad Instat software. Morphological changes were examined using phase contrast inverted microscope with a digital camera (Olympus, Japan). […]
(§2) Normal human lung fibroblast Wi-38 cell line was used to detect cytotoxicity of the studied compounds.
(§3) Wi-38 cell line was cultured in DMEM medium-contained 10% fetal bovine serum (FBS), seeded as 5x10^3 cells per well in 96-well cell culture plate and incubated at 37 °C in 5% CO2 incubator. After 24 h for cell attachment, serial concentrations of the synthetic compounds and standard chemotherapy (5-fluorouracil) were incubated with Wi-38 cells for 72 h. Cell viability was assayed by MTT method Twenty microliters of 5 mg/ml MTT (Sigma, USA) was added to each well and the plate was incubated at 37 °C for 3 h. Then MTT solution was removed, 100 µl DMSO was added, and the absorbance of each well was measured with a microplate reader (BMG LabTech, Germany) at 570 nm. The dose (EC50 and EC100) values (at 50% and100% cell viability, respectively) of the tested compounds was estimated by the Graphpad Instat software.
(§4) The anticancer effect of the above-mentioned compounds was assayed using human colon cancer cell line (Caco-2) and liver cancer cell line (HepG-2) that were cultured in DMEM (Lonza, USA) supplemented with 10%
(§5) FBS. All cancer cells (5x10^3 cells/well) were seeded in sterile 96-well plates. After 24h, serial concentrations of the tested compounds and 5-fluorouracil (Fu) were incubated with two cancer cell lines for 72 h at 37 °C in 5% CO2 incubator. MTT method was done as described above. The half maximal inhibitory concentration (IC50) values were calculated using the Graphpad Instat software. Furthermore, cellular morphological changes before […]
(§6) contrast inverted microscope with a digital camera (Olympus, Japan).

[2] = tested on: HepG-2 cells; experiment: MTT cytotoxicity assay, liver cancer cells; assay type: cell-based, human; settings: for IC50: Homo sapiens, HepG2; for HepG-2 SI: ratio of IC50 against normal cells (Wi-38) to IC50 against HepG-2
Description: as §1, §2, §3, §4, §5, §6

[3] = tested on: Wi-38 cells; experiment: MTT cytotoxicity assay, normal human fibroblasts; assay type: cell-based; settings: 72 h, mean ± SEM; for MNTC: dose at 100% cell viability, read-out: Wi-38 EC100
Description: as §1, §2
as §3, with “software. […]” for “software.”

[4] = tested on: Bcl2; experiment: RT-qPCR of Bcl2 expression in Caco-2 cells; assay type: cell-based, human; settings: 0.06 µM for 72 h, mean ± SEM
Description: (§7) RNAs of untreated and treated cancer cells were extracted using Gene JET RNA purification kit (Thermo Scientific, USA). Then cDNAs were synthesized using cDNA Synthesis Kit (Thermo Scientific, USA). Real time PCR was performed using SYBR green master mix and specific primers (Forward/Reverse) as detailed in the supplementary data. […]
5.3. Real-time Quantitative PCR Analysis of Bcl2 […]
as §7, with “µM, for 72 h in 5% CO2 incubator. RNAs” for “RNAs”, “primers” for “primers (Forward/Reverse) as detailed in the supplementary data.”
The thermal cycling parameters were pre-denaturation, followed by 40 amplification cycles of 1 min at 95°C and 30 s at 60 °C and at 72°C for 30 sec. GAPDH mRNA was quantified to adjust the amount of mRNA in each sample. The 2−ΔΔCT equation was used to estimate change in gene expressions before and after treatment of cancer cells.
Table 1 primer sequences of the used genes

[5] = tested on: caspase-3/7; experiment: Caspase-3/7 activation assay (ApoONE kit) in HepG-2 cells; assay type: cell-based, human; settings: HepG-2 cells treated with IC50 doses; relative to untreated cells; mean ± SEM
Description: (§8) ApoONE® Caspase-3/7 kit was used following the manufacturer’s instructions (Supplementary data).
(§9) 5.2. Caspase-3/7 activation assay
(§10) The caspase 3/7 activation was assessed, as a key indicator in caspase-dependent apoptosis, using ApoONE® Caspase-3/7 kit following the manufacturer’s instructions. This kit used a nonfluorescence substrate […]
(§11) the generation of the fluorescence signals of Rhodamine 110. Thesesignal were measured at 490 nm excitation and 520 nm emission using the fluorescence microplate reader (BMG LabTech, Germany). […]

[6] = tested on: Caco-2 cells; experiment: Flow cytometric analysis of apoptosis (annexin V/PI); assay type: cell-based, human; settings: IC50 doses, 72 h, annexin-stained, mean ± SEM
Description: Reverse: 5′-[…]-3′
5.4. Flow cytometric analysis of apoptosis […]
human colon cancer cell line (Caco-2) for 72 h, at their minimum IC50 doses. After trypsinization, the untreated and treated cancer cells were stained with fluorescein isothiocyanate (FITC)-annexin V/ propidium iodide (PI) for 15 min. After washing with PBS, the annexin-stained apoptotic population was quantified using flow cytometry at FITC signal detector (FL1) against the phycoerythrin emission signal detector (FL2).

[7] = tested on: caspase-3/7; experiment: Caspase-3/7 activation assay (ApoONE kit) in Caco-2 cells; assay type: cell-based, human; settings: Caco-2 cells treated with IC50 doses; relative to untreated cells; mean ± SEM
Description: as §8, §9, §10, §11

[8] = Caco-2, MTT, 72 h, mean ± SEM, read-out: Caco-2 IC50 (converted)
[9] = MTT, 72 h, mean ± SEM, read-out: HepG-2 IC50
[10] = microscopic examination after 72 h, compared to untreated and 5-FU-treated cells

Structure (SMILES) | melting point [°C] | IC50 [1, 8] [nM] | Caco-2 SI [1] | IC50 [2, 9] [nM] | HepG-2 SI [2] | MNTC [3] [nM] | IC50 [3] [nM] | Bcl2 gene relative fold change [4] [fold] | Relative fold increment in caspase 3/7 activity, HepG-2 [5] [fold] | % Apoptosis (total apoptotic cell population) [6] | SI against the screened cell lines ([1]; Caco-2 and HepG-2 cells versus Wi-38) | IC50 ([1]; Caco-2, -log (IC50), molar, read-out: Caco-2 IC50 (converted)) [nM] | IC50 ([1]; Caco-2 and HepG-2 cells, MTT, read-out: IC50 against the screened cell lines) [nM] | Caco-2 LE ([1]; LE = 1.37 (pIC50)/NHA) | Caco-2 LLE ([1]; LLE = pIC50–cLog P) | Morphological alterations of treated Caco-2 cells [1, 10] | IC50 ([2]; read-out: HepG-2 pIC50 (converted)) [nM] | Morphological alterations of treated HepG-2 cells [2, 10] | Relative fold increment in caspase 3/7 activity, Caco-2 [7] [fold]
CCOC(=O)c1ccc(NC(=O)C2(OC(=O)c3ccccc3)CCCCC2)cc1 [7c, Ethyl-4-(1-(benzoyloxy)cyclohexanecarboxamido)benzoate] | 140 to 142 | 276 ± 34 | 27.909 | 184 ± 9 | 41.864 | 2100 ± 92 | 7700 ± 321 | – | – | – | – | – | – | – | – | – | – | – | –
CCOC(=O)c1ccc(NC(=O)C2(OC(=O)C=Cc3ccc(C(F)(F)F)cc3)CCCCC2)cc1 [7h, Ethyl-4-(1-((3-(4-(trifluoromethyl)phenyl)acryloyl)oxy)cyclohexanecarboxamido)benzoate] | 145 to 147 | 138 ± 14 | 135.340 | 259 ± 73 | 72.111 | 1650 ± 39 | 18700 ± 2040 | – | – | – | – | – | – | – | – | – | – | – | –
CCOC(=O)c1ccc(NC(=O)C2(OC(=O)c3ccc(Cl)cc3)CCCCC2)cc1 [7d, 1-((4-(Ethoxycarbonyl)phenyl)carbamoyl)cyclohexyl 4-chlorobenzoate] | 193 to 195 | 201 ± 19 | 123.174 | 407 ± 16 | 60.830 | 1700 ± 165 | 24800 ± 10200 | – | – | – | – | – | – | – | – | – | – | – | –
CCOC(=O)c1ccc(NC(=O)C2(OC(=O)c3ccc4ccccc4n3)CCCCC2)cc1 [7b, 1-((4-(Ethoxycarbonyl)phenyl)carbamoyl)cyclohexyl quinoline-2-carboxylate] | 103 to 105 | 172 ± 22 | 105.697 | 228 ± 27 | 79.736 | 1790 ± 111 | 18200 ± 2220 | – | – | – | – | – | – | – | – | – | – | – | –
CCOC(=O)c1ccc(NC(=O)C2(O)CCCCC2)cc1 [compound 9, Ethyl 4-(1-hydroxycyclohexanecarboxamido)benzoate] | 160 to 163 | 154 ± 7 | 109.272 | 150 ± 4 | 112.186 | 3220 ± 217 | 16800 ± 3010 | – | – | – | – | – | – | – | – | – | – | – | –
CCOC(=O)c1ccc(NC(=O)C2(OC(=O)CS)CCCCC2)cc1 [7k, Ethyl-4-(1-(2-mercaptoacetoxy)cyclohexane-1-carboxamido)benzoate] | 108 to 110 | 140 ± 3 | 69.057 | 141 | 68.567 | 1465 ± 10 | 9670 ± 102 | – | – | – | – | – | – | – | – | – | – | – | –
CCOC(=O)c1ccc(NC(=O)C2(OC(=O)CNC(=O)c3ccc(NC(=O)OC(C)(C)C)cc3)CCCCC2)cc1 [7i, Ethyl-4-(1-(2-(4-((tert-butoxycarbonyl)amino)benzamido)acetoxy)cyclohexanecarboxamido) benzoate] | 115 to 117 | 132 ± 50 | 172.765 | 127 ± 44 | 179.566 | 1630 ± 259 | 22800 ± 3100 | – | – | – | – | – | – | – | – | – | – | – | –
CCOC(=O)c1ccc(NC(=O)C2(OC(=O)c3ccccc3I)CCCCC2)cc1 [7f, 1-((4-(Ethoxycarbonyl)phenyl)carbamoyl)cyclohexyl 2-iodobenzoate] | 148 to 150 | 129 ± 28 | 132.209 | 147 ± 46 | 116.020 | 967 ± 26 | 17100 ± 1690 | – | – | – | – | – | – | – | – | – | – | – | –
CCOC(=O)c1ccc(NC(=O)C2(OC(=O)Cc3ccccc3)CCCCC2)cc1 [7g, Ethyl-4-(1-(2-phenylacetoxy)cyclohexanecarboxamido)benzoate] | – | 64 ± 6 | 266.828 | 65 ± 4 | 262.723 | 1300 ± 105 | 17100 ± 2150 | 0.087 ± 0.009 | 4.118 ± 0.083 | 58.7% and 58.730 ± 2.930% | 262–266 | 64.1 | 60 | 0.328 | 3.453 | severe shrinkage and morphological alterations | 65 | severe shrinkage and morphological alterations | –
O=c1[nH]cc(F)c(=O)[nH]1 [5-FU, 5-fluorouracil, reference compound] | – | 865 ± 39 | 2.301 | 1610 ± 28 | 1.233 | 840 ± 55 | 1990 ± 135 | 0.948 ± 0.027 | 1.001 ± 0.001 | – | – | – | – | – | – | – | – | – | 1.016 ± 0.009
CCOC(=O)c1ccc(NC(=O)C2(OC(=O)c3ccccc3Cl)CCCCC2)cc1 [7e, 1-((4-(Ethoxycarbonyl)phenyl)carbamoyl)cyclohexyl 2-chlorobenzoate] | 130 to 132 | 117 ± 10 | 168.820 | 130 ± 9 | 151.938 | 1780 ± 169 | 19800 ± 1020 | – | – | – | – | – | – | – | – | – | – | – | –
CCOC(=O)c1ccc(N2C(=O)OC3(CCCCC3)C2=O)cc1 [compound 11, Ethyl-4-(2,4-dioxo-1-oxa-3-azaspiro[4.5]decan-3-yl)benzoate] | 143 to 145 | 239 ± 71 | 41.510 | 209 ± 17 | 47.468 | 4940 ± 1540 | 9920 ± 1610 | – | – | – | – | – | – | – | – | – | – | – | –
